# Test results taken from patent US11497736B2, “Compositions for an orally active 1,2,4-oxadiazole for the treatment of disease” (PTC Therapeutics, Inc., priority 2005, dated 2022).
# Experiments:
# Assay type in all cases: in vivo, human
# [1] = Patient-reported changes in cystic fibrosis symptoms, asked by trial investigators; conditions: of the 15 patients in the interim analysis
# Text: (§1) 3-[5-(2-Fluoro-phenyl)-[1,2,4]oxadiazol-3-yl]-benzoic acid was provided in a formulation described herein.
# In addition, although changes in patient's symptoms were not formally measured through the use of a quality-of-life questionnaire, trial investigators were requested to ask about changes in patients' cystic fibrosis symptoms. In the 15 patients included in the interim analysis, 6 reported general improvements in well being, 6 reported decrease in cough and 10 reported decreased mucus thickness and easier clearing of mucus.
# [2] = Pulmonary function tests (FEV1, FVC) by spirometry, Phase 2 cystic fibrosis study
# Experimental: Pulmonary function tests, including FEV1, FVC, and MEF25-75, are measured using standard spirometry procedures. Assessments of pulmonary function (including MEF25-75, FVC, and, particularly, FEV1) have been acknowledged as definitive clinical endpoints in patients with CF (Food and Drug Administration, 62nd Anti-Infective Drugs Advisory Committee. Discussion of NDA for tobramycin solution for inhalation (Tobi®) for the management of cystic fibrosis patients. November, 1997; Tiddens, 2002, Pediatr. Pulmonol. 34(3): 228-31). […] Pulmonary function testing is simple to administer (even in patients as young as 7 years of age), and uses standardized equipment and techniques that are widely available. Interpretation is performed using well-established normative equations that account for patient age, height, and gender.
# as §1
# (§2) Clinical endpoints were evaluated using the procedures set forth above. TEPD measurements were made prior to treatment and on days 14 and 28 of Cycle 1 and Cycle 2. Nasal mucosal curettage was collected from each nostril of each patient prior to treatment and on days 14 and 28 of Cycle 1 and Cycle 2. Pulmonary tests, including FEV1, FVC and MEF25-75, were measured prior to treatment, on day −1 of Cycle 2, on day 13 or 14 of Cycle 1 and day 13 or 14 of Cycle 2 in the study being conducted in Israel and the same parameters were measured prior to treatment and on day 13 or 14 of Cycle 2 in the study being conducted in the United States.
# (§3) Statistically significant results and positive trends for secondary endpoints were also observed. In particular, although the trials were not been powered to detect statistical significant changes in secondary endpoints, statistically significant improvements from study entry to the end of the higher-dose treatment cycle in the patients' mean FEV1, FVC and weight were observed.
# CFTR = test: Transepithelial potential difference (TEPD) chloride conductance, Phase 2 study in nonsense-mutation-mediated cystic fibrosis; conditions: for Mean change in TEPD chloride conductance: 15 CF patients; for Number of patients with improvement in TEPD chloride conductance to normal / Number of patients with ≥−5 mV improvement in TEPD chloride conductance: patients/total
# Experimental: The measurement of transepithelial potential difference (TEPD), also known as nasal potential difference, provides a sensitive evaluation of sodium and chloride transport directly in secretory epithelial cells via assessment of transepithelial bioelectric properties (Knowles et al., 1981, N. Engl. J. Med. 305(25):1489-95; Knowles et al., 1995, Hum. Gene Ther. 6:445). TEPD is performed in each nostril using standardized techniques (Standaert et al., 2004, Ped. Pulm. 37:385-92). In the procedure, a small plastic catheter is used to assess electrical differences across the outer cell membrane of nasal mucosa cells in the nostril. TEPD values are expressed in millivolts, or mV. A chloride conductance equal to or more electrically negative than −5.0 mV is generally considered to be in the normal range. […] TEPD assessments can also be made on rectal epithelial cells and lower respiratory epithelial cells. Because of the role of the CFTR protein in transporting chloride ions across cell membranes, and because of the absence of this protein, cystic fibrosis patients have an abnormal TEPD chloride conductance. As an endpoint, TEPD has the advantage that it can detect chloride transport changes that are a quantitative integration of the presence, functional activity, and apical location of the CFTR in airway cells. Furthermore, it is a direct measure of CFTR activity that is not likely to be affected by supportive or palliative treatments for CF (with the possible exception of systemically administered aminoglycoside antibiotics). Of importance is evidence that TEPD values can correlate with the degree of pulmonary dysfunction and radiographic abnormality (Ho et al., 1997, Eur. Respir. J. 10(9):2018-22; Fajac et al., 1998, Eur. Respir. J 12(6):1295-300; Sermet-Gaudelus et al., 2005, Am. J. Respit. Crit. Care Med. 171(9):1026-1031). […] Under baseline conditions, TEPD-assessed chloride channel activity is very unlikely to normalize spontaneously in patients with CF; any observed improvements in TEPD-assessed chloride channel activity are expected to specifically denote pharmacological activity of CFTR-correcting therapies. Accordingly, it has become the primary endpoint in Phase 1-2 pharmacological and gene replacement studies aimed at correcting CFTR dysfunction (Peckham et al., 1995, AJ. Clin Sci (London). 89(3):277-84; Wilschanski et al., 2003, N. Engl. J Med. 349(15):1433-41).
# as §1, §2
# This is the average of the changes from the beginning to the end of the treatment period in TEPD chloride conductance within each study participant. For example, if the changes in TEPD chloride conductance within each of three participants were −7.0 mV, −2.0 mV and −9.0 mV, the mean change in TEPD chloride conductance among these participants would be −6.0 mV.
# For purposes of the trials, a chloride conductance response is defined as a TEPD chloride conductance improvement of at least −5 mV. For example, in a patient with a TEPD chloride conductance value of +1.0 mV at baseline and a TEPD chloride conductance value of −6.0 mV at the end of treatment, the TEPD chloride conductance improvement would be −7.0 mV, representing a chloride conductance response. […]
# [3] = Body weight, Phase 2 cystic fibrosis study
# Text: as §1, §3
# [4] = Change from study entry to end of higher dose treatment
# [5] = Best of nostrils, higher dose level
# [6] = Best of nostrils, lower dose level
# [7] = Mean of both nostrils, higher dose level
# [8] = Mean of both nostrils, lower dose level
smiles,measurement,setting,value
"O=C(O)c1cccc(-c2noc(-c3ccccc3F)n2)c1 [3-[5-(2-Fluoro-phenyl)-[1,2,4]oxadiazol-3-yl]-benzoic acid]",Patients who reported decrease in cough,[1],6
same,Patients who reported decreased mucus thickness and easier clearing of mucus,[1],10
same,Patients who reported general improvements in well being,[1],6
same,"Mean FEV1 change (percentage of normal for gender, age and height)",[2]; [4],3.3%
same,"Mean FVC change (percentage of normal for gender, age and height)",[2]; [4],4.9%
same,"Mean FEV1 (percentage of normal for gender, age and height)","[2]; End of higher dose treatment, study entry 65.8%",69.1%
same,"Mean FVC (percentage of normal for gender, age and height)","[2]; End of higher dose treatment, study entry 80.2%",85.1%
same,Number of patients with improvement in TEPD chloride conductance to normal (percentage),CFTR; [5],(53%)
same,Number of patients with ≥−5 mV improvement in TEPD chloride conductance (percentage),CFTR; [5],(53%)
same,Mean change in TEPD chloride conductance,"CFTR; Best of nostrils, higher dose level (10, 10, 20 mg/kg TID oral, 14 days)",−6.4 mV
same,Number of patients with improvement in TEPD chloride conductance to normal,CFTR; [5],8/15
same,Number of patients with ≥−5 mV improvement in TEPD chloride conductance,CFTR; [5],8/15
same,Number of patients with improvement in TEPD chloride conductance to normal (percentage),CFTR; [6],(53%)
same,Number of patients with ≥−5 mV improvement in TEPD chloride conductance (percentage),CFTR; [6],(60%)
same,Mean change in TEPD chloride conductance,"CFTR; Best of nostrils, lower dose level (4, 4, 8 mg/kg TID oral, 14 days)",−9.0 mV
same,Number of patients with improvement in TEPD chloride conductance to normal,CFTR; [6],8/15
same,Number of patients with ≥−5 mV improvement in TEPD chloride conductance,CFTR; [6],9/15
same,Number of patients with improvement in TEPD chloride conductance to normal (percentage),CFTR; [7],(47%)
same,Number of patients with ≥−5 mV improvement in TEPD chloride conductance (percentage),CFTR; [7],(47%)
same,Mean change in TEPD chloride conductance,"CFTR; Mean of both nostrils, higher dose level (10, 10, 20 mg/kg TID oral, 14 days)",−4.4 mV
same,Number of patients with improvement in TEPD chloride conductance to normal,CFTR; [7],7/15
same,Number of patients with ≥−5 mV improvement in TEPD chloride conductance,CFTR; [7],7/15
same,Number of patients with improvement in TEPD chloride conductance to normal (percentage),CFTR; [8],(40%)
same,Number of patients with ≥−5 mV improvement in TEPD chloride conductance (percentage),CFTR; [8],(40%)
same,Mean change in TEPD chloride conductance,"CFTR; Mean of both nostrils, lower dose level (4, 4, 8 mg/kg TID oral, 14 days)",−6.7 mV
same,Number of patients with improvement in TEPD chloride conductance to normal,CFTR; [8],6/15
same,Number of patients with ≥−5 mV improvement in TEPD chloride conductance,CFTR; [8],6/15
same,Weight change,[3]; [4],0.7 kg
same,Weight,"[3]; End of higher dose treatment, study entry 58.3 kg",59.0 kg
